From PubChem BioAssay (NCI)
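Interpolation was linear, between the two tested concentrations surrounding the appropriate level; five concentrations were tested over 48 hours in 96-well plates. At the GI50, growth is halved. Definition used: TGI = concentration required for complete inhibition of growth.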

Key:
Assay in all cases: DTP human tumour cell line panel, 48 h
[1] = system: T-47D breast
[2] = system: HS 578T breast
[3] = system: NCI-H460 lung
[4] = system: 786-0 renal
[5] = system: UACC-257 melanoma
[6] = system: HCT-116 colon
[7] = system: HCC-2998 colon
[8] = system: SK-MEL-5 melanoma
[9] = system: MOLT-4 leukemia
[10] = system: ACHN renal
[11] = system: SK-OV-3 ovarian
[12] = system: CAKI-1 renal
[13] = system: OVCAR-4 ovarian
[14] = system: TK-10 renal
[15] = system: MCF7 breast
[16] = system: SF-268 CNS
[17] = system: RPMI-8226 leukemia
[18] = system: MDA-MB-435
[19] = system: EKVX NSCLC
[20] = system: KM12 colon
[21] = system: MALME-3M melanoma
[22] = system: RXF 393 renal
[23] = system: HOP-62 NSCLC
[24] = system: HL-60(TB) leukemia
[25] = system: UACC-62 melanoma
[26] = system: U251 CNS
[27] = system: NCI-H23 lung
[28] = system: SW-620 colon
[29] = system: MDA-MB-231 breast
[30] = system: UO-31 renal
[31] = system: NCI-H226 lung
[32] = system: NCI/ADR-RES ovarian
[33] = system: HCT-15 colon
[34] = system: SF-539 CNS
[35] = system: M14 melanoma
[36] = system: SK-MEL-2 melanoma
[37] = system: SR leukemia
[38] = system: SN12C renal
[39] = system: A549 NSCLC
[40] = system: BT-549 breast
[41] = system: CCRF-CEM leukemia
[42] = system: K-562 leukemia
[43] = system: OVCAR-8 ovarian
[44] = system: SNB-75 CNS
[45] = system: DU-145 prostate
[46] = system: OVCAR-5 ovarian
[47] = system: A498 renal
[48] = system: SNB-19 CNS
[49] = system: SK-MEL-28 melanoma
[50] = system: LOX IMVI melanoma
[51] = system: OVCAR-3 ovarian
[52] = system: IGROV1 ovarian
[53] = system: HT29 colon
[54] = system: SF-295 CNS
[55] = system: COLO 205 colon
[56] = system: HOP-92 NSCLC
[57] = system: NCI-H522 lung

For `CCS/C(Nc1ccccc1)=C(\C#N)C(=O)N/N=C/c1ccc(Cl)cc1Cl`, the GI50 [1] was 4.03 µM, the TGI [1] was greater than 100 µM and the GI50 [2] was 2.74 µM. For the same molecule, the TGI [2] was 98.7 µM, the GI50 [3] was 3.16 µM and the TGI [3] was greater than 100 µM. For the same molecule, the GI50 [4] was 3.5 µM, the TGI [4] was greater than 100 µM and the GI50 [5] was 25.7 µM. It also gave a TGI [5] greater than 100 µM, a GI50 [6] of 2.99 µM and a TGI [6] greater than 100 µM. For the same molecule, the GI50 [7] was 5.47 µM, the TGI [7] was greater than 100 µM and the GI50 [8] was 2.28 µM. It also gave a TGI [8] of 8.53 µM, a GI50 [9] of 3.48 µM and a TGI [9] greater than 100 µM. For the same molecule, the GI50 [10] was 7.08 µM, the TGI [10] was greater than 100 µM and the GI50 [11] was 3.72 µM. For the same molecule, the TGI [11] was greater than 100 µM, the GI50 [12] was 2.39 µM and the TGI [12] was greater than 100 µM. The GI50 [13] was 6.57 µM, the TGI [13] was greater than 100 µM and the GI50 [14] was 10.2 µM. It also gave a TGI [14] greater than 100 µM, a GI50 [15] of 2.99 µM and a TGI [15] greater than 100 µM. For the same molecule, the GI50 [16] was 6.58 µM, the TGI [16] was greater than 100 µM and the GI50 [17] was 3.68 µM. For the same molecule, the TGI [17] was greater than 100 µM, the GI50 [18] was 0.419 µM and the TGI [18] was 2.23 µM. It also gave a GI50 [19] of 5.09 µM, a TGI [19] greater than 100 µM and a GI50 [20] of 4.04 µM. The TGI [20] was greater than 100 µM, the GI50 [21] was 9.3 µM and the TGI [21] was greater than 100 µM. The GI50 [22] was 2.06 µM, the TGI [22] was 8.66 µM and the GI50 [23] was 3.66 µM. The TGI [23] was greater than 100 µM, the GI50 [24] was 3.2 µM and the TGI [24] was greater than 100 µM. It also gave a GI50 [25] of 2.74 µM, a TGI [25] greater than 100 µM and a GI50 [26] of 3.95 µM. It also gave a TGI [26] greater than 100 µM, a GI50 [27] of 6.47 µM and a TGI [27] greater than 100 µM. It also gave a GI50 [28] of 4.65 µM, a TGI [28] greater than 100 µM and a GI50 [29] of 4.75 µM. The TGI [29] was greater than 100 µM, the GI50 [30] was 6.91 µM and the TGI [30] was greater than 100 µM. The GI50 [31] was 4 µM, the TGI [31] was greater than 100 µM and the GI50 [32] was 3.16 µM. The TGI [32] was greater than 100 µM, the GI50 [33] was 2.9 µM and the TGI [33] was greater than 100 µM. It also gave a GI50 [34] of 2.89 µM, a TGI [34] of 20.6 µM and a GI50 [35] of 2.01 µM. For the same molecule, the TGI [35] was 9.61 µM, the GI50 [36] was 3.24 µM and the TGI [36] was 43.6 µM. For the same molecule, the GI50 [37] was 3.45 µM, the TGI [37] was greater than 100 µM and the GI50 [38] was 6.92 µM. For the same molecule, the TGI [38] was greater than 100 µM, the GI50 [39] was 4.63 µM and the TGI [39] was greater than 100 µM. For the same molecule, the GI50 [40] was 2.8 µM, the TGI [40] was greater than 100 µM and the GI50 [41] was 3.07 µM. The TGI [41] was greater than 100 µM, the GI50 [42] was 0.855 µM and the TGI [42] was greater than 100 µM. The GI50 [43] was 4.81 µM, the TGI [43] was greater than 100 µM and the GI50 [44] was 2.15 µM. It also gave a TGI [44] of 9.37 µM, a GI50 [45] of 3.57 µM and a TGI [45] greater than 100 µM. It also gave a GI50 [46] of 8.25 µM, a TGI [46] greater than 100 µM and a GI50 [47] of 1.87 µM. For the same molecule, the TGI [47] was 37.8 µM, the GI50 [48] was 4.17 µM and the TGI [48] was greater than 100 µM. For the same molecule, the GI50 [49] was 23.6 µM, the TGI [49] was greater than 100 µM and the GI50 [50] was 5.88 µM. For the same molecule, the TGI [50] was greater than 100 µM, the GI50 [51] was 2.8 µM and the TGI [51] was 10.7 µM. For the same molecule, the GI50 [52] was 6.46 µM, the TGI [52] was greater than 100 µM and the GI50 [53] was 3.7 µM. It also gave a TGI [53] greater than 100 µM, a GI50 [54] of 2.89 µM and a TGI [54] greater than 100 µM.
Molecule `COc1cc(/C=C/C(=O)c2ccc(Nc3nc(Nc4ccccc4)nc(Nc4ccc(Cl)cc4)n3)cc2)cc(OC)c1OC` has a GI50 [1] of 3.03 µM, a TGI [1] greater than 32.5 µM and a GI50 [2] of 15.2 µM. It also gave a TGI [2] greater than 32.5 µM, a GI50 [3] of 8.71 µM and a TGI [3] greater than 32.5 µM. The GI50 [4] was 9.84 µM, the TGI [4] was greater than 32.5 µM and the GI50 [55] was 8.55 µM. For the same molecule, the TGI [55] was greater than 32.5 µM, the GI50 [5] was greater than 32.5 µM and the TGI [5] was greater than 32.5 µM. For the same molecule, the GI50 [6] was 2.68 µM, the TGI [6] was greater than 32.5 µM and the GI50 [7] was greater than 32.5 µM. The TGI [7] was greater than 32.5 µM, the GI50 [8] was 4.76 µM and the TGI [8] was 30.6 µM. For the same molecule, the GI50 [9] was 2.65 µM, the TGI [9] was greater than 32.5 µM and the GI50 [10] was 10.8 µM. The TGI [10] was greater than 32.5 µM, the GI50 [56] was 1.91 µM and the TGI [56] was greater than 32.5 µM. The GI50 [11] was greater than 32.5 µM, the TGI [11] was greater than 32.5 µM and the GI50 [12] was 11 µM. It also gave a TGI [12] greater than 32.5 µM, a GI50 [13] of 14 µM and a TGI [13] greater than 32.5 µM. The GI50 [14] was 19.1 µM, the TGI [14] was greater than 32.5 µM and the GI50 [15] was 2.02 µM. It also gave a TGI [15] greater than 32.5 µM, a GI50 [16] of 23.8 µM and a TGI [16] greater than 32.5 µM. The GI50 [17] was 2.21 µM, the TGI [17] was 20.9 µM and the GI50 [18] was 11.3 µM. For the same molecule, the TGI [18] was greater than 32.5 µM, the GI50 [19] was 24.1 µM and the TGI [19] was greater than 32.5 µM. The GI50 [20] was 8.83 µM, the TGI [20] was greater than 32.5 µM and the GI50 [21] was 9.71 µM. The TGI [21] was greater than 32.5 µM, the GI50 [22] was 5.09 µM and the TGI [22] was 25.3 µM. For the same molecule, the GI50 [23] was greater than 32.5 µM, the TGI [23] was greater than 32.5 µM and the GI50 [24] was 1.18 µM. It also gave a TGI [24] of 11.3 µM, a GI50 [25] of 14.7 µM and a TGI [25] greater than 32.5 µM. For the same molecule, the GI50 [26] was 4.62 µM, the TGI [26] was greater than 32.5 µM and the GI50 [27] was 11.9 µM. For the same molecule, the TGI [27] was greater than 32.5 µM, the GI50 [28] was 8.46 µM and the TGI [28] was greater than 32.5 µM. For the same molecule, the GI50 [29] was 18.5 µM, the TGI [29] was greater than 32.5 µM and the GI50 [30] was 2.46 µM. For the same molecule, the TGI [30] was greater than 32.5 µM, the GI50 [31] was 7.66 µM and the TGI [31] was greater than 32.5 µM. For the same molecule, the GI50 [32] was 31.5 µM, the TGI [32] was greater than 32.5 µM and the GI50 [33] was 8.86 µM. It also gave a TGI [33] greater than 32.5 µM, a GI50 [34] of 6.84 µM and a TGI [34] of 16.2 µM. It also gave a GI50 [35] of 15.1 µM, a TGI [35] greater than 32.5 µM and a GI50 [36] greater than 32.5 µM. It also gave a TGI [36] greater than 32.5 µM, a GI50 [37] of 1.07 µM and a TGI [37] of 19.3 µM. The GI50 [38] was 20.9 µM, the TGI [38] was greater than 32.5 µM and the GI50 [39] was greater than 32.5 µM. For the same molecule, the TGI [39] was greater than 32.5 µM, the GI50 [57] was 13.9 µM and the TGI [57] was greater than 32.5 µM. The GI50 [40] was 7.51 µM, the TGI [40] was greater than 32.5 µM and the GI50 [41] was 4.12 µM. For the same molecule, the TGI [41] was greater than 32.5 µM, the GI50 [42] was 4.18 µM and the TGI [42] was greater than 32.5 µM. The GI50 [43] was 3.34 µM, the TGI [43] was greater than 32.5 µM and the GI50 [44] was 6.05 µM. The TGI [44] was greater than 32.5 µM, the GI50 [45] was greater than 32.5 µM and the TGI [45] was greater than 32.5 µM. The GI50 [46] was 10.4 µM, the TGI [46] was greater than 32.5 µM and the GI50 [47] was 28.2 µM. The TGI [47] was greater than 32.5 µM, the GI50 [48] was greater than 32.5 µM and the TGI [48] was greater than 32.5 µM. It also gave a GI50 [49] of 14.5 µM, a TGI [49] greater than 32.5 µM and a GI50 [50] of 7.19 µM. For the same molecule, the TGI [50] was greater than 32.5 µM, the GI50 [51] was 8.62 µM and the TGI [51] was greater than 32.5 µM. For the same molecule, the GI50 [52] was 8.17 µM, the TGI [52] was greater than 32.5 µM and the GI50 [53] was 5.39 µM. For the same molecule, the TGI [53] was greater than 32.5 µM, the GI50 [54] was 7.22 µM and the TGI [54] was greater than 32.5 µM.
